± gives the expanded uncertainty stated by the source.
Columns and labels:
[1] = Fluid (supercritical or subcritical phases), coriolis meter
[2] = xn = mol fraction of the nth substance listed; conditions: Fluid (supercritical or subcritical phases), coriolis meter

O=C=O [carbon dioxide]
[1]
Conditions	mass density [kg/m3]
291.3 K, 6100 kPa	817 ± 9
291.5 K, 7100 kPa	834 ± 14
291.7 K, 8100 kPa	849 ± 17
291.9 K, 9200 kPa	861 ± 9
292 K, 10200 kPa	872 ± 10
292.1 K, 15200 kPa	916 ± 12
292.1 K, 20200 kPa	948 ± 15
292.1 K, 25300 kPa	975 ± 10
292.1 K, 30100 kPa	997 ± 10

O=C=O [carbon dioxide] + COC
[2], x2 = 0
Conditions	mass density [kg/m3]
291.3 K, 6100 kPa	817 ± 4
291.5 K, 7100 kPa	834 ± 11
291.7 K, 8100 kPa	849 ± 14
291.9 K, 9200 kPa	861 ± 3
292 K, 10200 kPa	872 ± 5
292.1 K, 15200 kPa	916 ± 8
292.1 K, 20200 kPa	948 ± 12
292.1 K, 25300 kPa	975 ± 2
292.1 K, 30100 kPa	997 ± 2

COC [dimethyl ether]
[1]
Conditions	mass density [kg/m3]
288.5 K, 4100 kPa	684 ± 7
288.6 K, 5100 kPa	686 ± 16
288.8 K, 6100 kPa	688 ± 7
289 K, 7200 kPa	690 ± 7
289.1 K, 8200 kPa	691 ± 7
289.1 K, 9200 kPa	693 ± 7
289.3 K, 10000 kPa	694 ± 7
289.3 K, 15000 kPa	703 ± 7
289.3 K, 20000 kPa	711 ± 7
289.4 K, 25000 kPa	718 ± 7
289.5 K, 30000 kPa	725 ± 8

COC [dimethyl ether] + O=C=O
[2]
Conditions	mass density [kg/m3]
288.5 K, 4100 kPa, x1 = 1	684 ± 1
288.6 K, 5100 kPa, x1 = 1	686 ± 14
288.8 K, 6100 kPa, x1 = 1	688 ± 1
289 K, 7200 kPa, x1 = 1	690 ± 2
289.1 K, 8200 kPa, x1 = 1	691 ± 1
289.1 K, 9200 kPa, x1 = 1	693 ± 1
289.3 K, 10000 kPa, x1 = 1	694 ± 1
289.3 K, 15000 kPa, x1 = 1	703 ± 1
289.3 K, 20000 kPa, x1 = 1	711 ± 1
289.4 K, 25000 kPa, x1 = 1	718 ± 2
289.5 K, 30000 kPa, x1 = 1	725 ± 2
290.2 K, 4100 kPa, x1 = 0.251	806 ± 1
290.7 K, 30100 kPa, x1 = 0.251	908 ± 2
291.8 K, 25200 kPa, x1 = 0.251	892 ± 1
291.9 K, 10100 kPa, x1 = 0.251	834 ± 2
291.9 K, 15200 kPa, x1 = 0.251	857 ± 1
291.9 K, 20200 kPa, x1 = 0.251	875 ± 1
292 K, 8100 kPa, x1 = 0.251	824 ± 2
292 K, 9200 kPa, x1 = 0.251	829 ± 2
292.1 K, 6100 kPa, x1 = 0.251	811 ± 2
292.1 K, 7100 kPa, x1 = 0.251	817 ± 2
292.2 K, 5100 kPa, x1 = 0.251	805 ± 6
292.5 K, 4000 kPa, x1 = 0.458	769 ± 1
292.5 K, 5200 kPa, x1 = 0.458	773 ± 1
292.6 K, 6100 kPa, x1 = 0.458	776 ± 1
292.7 K, 7100 kPa, x1 = 0.458	780 ± 1
292.8 K, 8200 kPa, x1 = 0.458	783 ± 1
293 K, 9200 kPa, x1 = 0.458	786 ± 15
293.1 K, 10200 kPa, x1 = 0.458	789 ± 1
293.2 K, 15200 kPa, x1 = 0.458	804 ± 1
293.4 K, 20200 kPa, x1 = 0.458	817 ± 1
293.5 K, 25300 kPa, x1 = 0.458	830 ± 1
293.7 K, 29300 kPa, x1 = 0.458	839 ± 1
293.7 K, 30000 kPa, x1 = 0.458	840 ± 1

Reference: the NIST ThermoML archive (doi:10.1016/j.fluid.2010.07.009)
